# Experimental data from ChEMBL document CHEMBL1142139, “In vitro-clinical correlations for amphotericin B susceptibility in AIDS-associated cryptococcal meningitis” (2007).
# System: Cryptococcus neoformans
# Assay: Antimicrobial activity against Cryptococcus neoformans isolates in CSF from meningitis patients after 14 day iv treatment
# Format: functional
smiles,measurement,value
C[C@@H]1[C@H](O)[C@@H](C)/C=C/C=C/C=C/C=C/C=C/C=C/C=C/[C@H](O[C@@H]2O[C@H](C)[C@@H](O)[C@H](N)[C@@H]2O)C[C@@H]2O[C@](O)(C[C@@H](O)C[C@@H](O)[C@H](O)CC[C@@H](O)C[C@@H](O)CC(=O)O[C@H]1C)C[C@H](O)[C@H]2C(=O)O [AMPHOTERICIN B],CFU/ml,0
